The text below walks through data of US9133186B2, “Hetero ring-fused imidazole derivative having AMPK activating effect” (Shionogi & Co., Ltd., priority 2010, dated 2015).

The target of this assay is T1, human AMPK α1β1γ1 enzyme (Homo sapiens, UniProt Q13131+Q9Y478).
T1 construct: purchased Carna Biosciences, Inc
In words: AMPK activator evaluation, Test Example 1 (mobility shift, FL-Peptide 7). Type of assay: biochemical. Particulars: human AMPK α1β1γ1, control without compound = 100%; for Emax: read-out: Emax (maximum rate of increase in activity within the measurement range). As to the method: To a buffer solution consisting of a 50 mM HEPES-NaOH buffer solution (pH 7.0), 100 mM NaCl, 10 mM magnesium chloride, 0.1% bovine serum albumin, 0.2 mM sodium orthovanadate(V), 1 mM ethylene glycol-bis(2-aminoethyl ether)-N,N,N′,N′-tetraacetic acid (EGTA), 5 mM disodium (3-glycerophosphate and 2 mM dithiothreitol, a human AMPK α1β1γ1 enzyme (manufactured by Carna Biosciences, Inc.) was added in an amount to give a conversion rate of approximately 10% by reaction for 2 hours, and a compound dissolved in DMSO was added thereto so as to have a 1% DMSO concentration. The obtained liquid was left to stand for 10 minutes.
To the liquid, a substrate solution consisting of a 50 mM HEPES-NaOH buffer solution (pH 7.0), 100 mM NaCl, 10 mM magnesium chloride, 0.1% bovine serum albumin, 0.2 mM sodium orthovanadate(V), 1 mM ethylene glycol-bis(2-aminoethyl ether)-N,N,N′,N′ tetraacetic acid (EGTA), 5 mM disodium β-glycerophosphate, 2 mM dithiothreitol, 0.4 mM ATP and 3 μM FL-Peptide 7 (manufactured by Caliper Life Sciences, Inc.) was added in equal amount (10 μl in total). The obtained liquid was allowed to react at 25° C. for 2 hours, and 10 μl of 20 mM EDTA was then added thereto to stop the reaction.
To detect phosphorylated fluorescent substrates, the reaction liquid was applied to a measuring device, LabChip EZ Reader II manufactured by Caliper Life Science, Inc., for detecting fluorescence by using differences in mobility due to differences in charge. The setting conditions for the device were pressure, −1.5 PSI; upstream voltage, −2250 V; downstream voltage, −400 V; post sample buffer sip time, 40 seconds; final delay, 120 seconds; and peak order, Product First.

T1 sequence (Q13131 10-559 limits assumed): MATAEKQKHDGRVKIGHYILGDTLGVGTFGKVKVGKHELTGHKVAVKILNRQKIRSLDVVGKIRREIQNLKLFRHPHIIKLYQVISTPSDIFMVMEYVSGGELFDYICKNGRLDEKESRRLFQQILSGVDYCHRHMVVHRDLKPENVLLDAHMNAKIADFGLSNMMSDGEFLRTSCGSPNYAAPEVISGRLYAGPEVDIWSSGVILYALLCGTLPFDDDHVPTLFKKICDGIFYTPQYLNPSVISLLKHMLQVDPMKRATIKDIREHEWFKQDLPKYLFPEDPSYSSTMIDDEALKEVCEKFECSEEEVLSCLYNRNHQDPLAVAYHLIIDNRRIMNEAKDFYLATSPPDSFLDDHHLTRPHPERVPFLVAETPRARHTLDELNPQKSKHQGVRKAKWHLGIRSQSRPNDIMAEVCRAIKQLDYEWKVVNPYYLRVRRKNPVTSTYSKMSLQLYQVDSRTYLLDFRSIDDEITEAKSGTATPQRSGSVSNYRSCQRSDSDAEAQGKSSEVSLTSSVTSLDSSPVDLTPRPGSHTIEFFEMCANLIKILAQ
T1 sequence (Q9Y478 whole entry): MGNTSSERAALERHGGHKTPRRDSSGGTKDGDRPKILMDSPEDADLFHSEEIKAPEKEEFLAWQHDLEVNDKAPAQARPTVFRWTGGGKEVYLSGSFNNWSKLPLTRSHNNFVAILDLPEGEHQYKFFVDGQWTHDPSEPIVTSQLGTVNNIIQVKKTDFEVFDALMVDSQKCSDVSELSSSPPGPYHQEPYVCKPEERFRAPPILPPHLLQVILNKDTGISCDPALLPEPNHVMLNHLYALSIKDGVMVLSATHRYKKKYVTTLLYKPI
T1 sequence (P54619 whole entry partner): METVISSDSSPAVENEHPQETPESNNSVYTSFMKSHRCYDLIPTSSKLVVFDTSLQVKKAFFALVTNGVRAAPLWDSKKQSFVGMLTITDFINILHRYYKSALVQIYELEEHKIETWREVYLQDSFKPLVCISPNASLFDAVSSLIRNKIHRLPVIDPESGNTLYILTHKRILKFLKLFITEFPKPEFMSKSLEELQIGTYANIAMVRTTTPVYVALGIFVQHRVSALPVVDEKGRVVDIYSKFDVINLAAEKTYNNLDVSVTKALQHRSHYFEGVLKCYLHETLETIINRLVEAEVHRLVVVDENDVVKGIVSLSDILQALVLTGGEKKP

The term Emax denotes the size of the effect at its maximum, as opposed to the concentration needed. Consider `O=C(O)/C=C/c1cccc(Oc2nc3nc(-c4ccc(N5CCOCC5)cc4)c(Cl)cc3[nH]2)c1` [Compound B-109], for which the “EC150 (compound concentration showing 150% relative to the control)” value came out at 140 nM and the Emax turned out to be 315%.

Turning to `CC(=O)NC(C)(C)c1ccc(Oc2nc3nc(-c4ccc(N5CCOCC5)cc4)c(Cl)cc3[nH]2)cc1` [Compound C-119], the “EC150 (compound concentration showing 150% relative to the control)” value came out at 130 nM and the Emax came out at 237%.

As to `C#CC(C)Oc1nc2nc(-c3ccc(N4CCOCC4)cc3)c(Cl)cc2[nH]1` (stereo not drawn) [Compound B-2], the “EC150 (compound concentration showing 150% relative to the control)” value turned out to be 3.6 nM and the Emax was found to be 399%.

As to `CC(=O)NC(C)(C)c1ccc(Oc2nc3nc(-c4ccc(C5=CCOCC5)cc4)c(Cl)cc3[nH]2)cc1` [Compound D-73], the “EC150 (compound concentration showing 150% relative to the control)” value worked out at 17 nM and the Emax is 254%.

With `CC(C)(C(N)=O)c1ncc(Oc2nc3nc(-c4ccc(N5CCOCC5)cc4)c(Cl)cc3[nH]2)cn1` [Compound D-54], the “EC150 (compound concentration showing 150% relative to the control)” value amounted to 110 nM and the Emax is 252%.

With `CC(C)(C(=O)O)c1ccc(Oc2nc3nc(-c4ccc(N5CCOCC5)cc4)c(Cl)cc3[nH]2)cc1` [Compound B-107], the “EC150 (compound concentration showing 150% relative to the control)” value was found to be 250 nM and the Emax was 249%.

As for `CC(=O)NC(C)(C)c1ccc(Oc2nc3nc(-c4ccc(N5CCOCC5)cc4)c(Cl)cc3[nH]2)cc1F` [Compound D-8], the “EC150 (compound concentration showing 150% relative to the control)” value turned out to be 39 nM and the Emax was 244%.

As to `Cc1ccc(Oc2nc3nc(-c4ccc(N5CCOCC5)nc4)c(Cl)cc3[nH]2)cc1C(=O)O` [Compound B-63], the “EC150 (compound concentration showing 150% relative to the control)” value came out at 100 nM and the Emax was 321%.

As to `OCc1ccc(Oc2nc3nc(-c4ccc(N5CCOCC5)cc4)c(Cl)cc3[nH]2)cc1` [Compound B-131], the “EC150 (compound concentration showing 150% relative to the control)” value was 44 nM and the Emax worked out at 298%.

For the compound `CC(C)(C(N)=O)c1ccc(Oc2nc3nc(-c4ccc(C5(CO)CC5)cc4)c(Cl)cc3[nH]2)cn1` [Compound D-71], the “EC150 (compound concentration showing 150% relative to the control)” value is on record as 860 nM and the Emax is 174%.

Consider `COc1ccc(-c2ccc(-c3nc4nc(Oc5ccc(C)c(C(=O)O)c5)[nH]c4cc3Cl)cc2)cc1` [Compound C-29], for which the “EC150 (compound concentration showing 150% relative to the control)” value came to 8.3 nM and the Emax was found to be 349%.

As to `Cc1ccc(Oc2nc3nc(C#Cc4ccccc4)c(Cl)cc3[nH]2)cc1C(=O)O` [Compound C-95], the “EC150 (compound concentration showing 150% relative to the control)” value was determined as 17 nM and the Emax stood at 309%.

For `Cc1ccc(Oc2nc3nc(-c4ccc(C(C)(C)O)cc4)c(Cl)cc3[nH]2)cc1C(=O)O` [Compound C-63], the “EC150 (compound concentration showing 150% relative to the control)” value is reported as 16 nM and the Emax was 331%.

As for `Cc1ccc(Oc2nc3nc(-c4ccc(N5CCCCC5=O)cc4)c(Cl)cc3[nH]2)cc1C(=O)O` [Compound C-88], the “EC150 (compound concentration showing 150% relative to the control)” value is on record as 120 nM and the Emax is 298%.

On to `CCc1ccc(Oc2nc3nc(-c4ccc(N5CCOCC5)cc4)c(Cl)cc3[nH]2)cc1C(=O)O` [Compound C-70], for which the “EC150 (compound concentration showing 150% relative to the control)” value is 4.2 nM and the Emax is 335%.

Regarding `Cc1ccc(Oc2nc3nc(-c4ccc(N5CCOCC5)cc4)c(Cl)cc3[nH]2)cc1C(=O)NC#N` [Compound C-9], the “EC150 (compound concentration showing 150% relative to the control)” value amounted to 33 nM and the Emax turned out to be 322%.

`CC(C)(C(N)=O)c1ccc(Oc2nc3nc(-c4ccc(C5(CO)CC5)cc4)c(Cl)cc3[nH]2)cc1` [Compound D-24]: the “EC150 (compound concentration showing 150% relative to the control)” value stood at 140 nM and the Emax was determined as 198%.

`Cc1ccc(Oc2nc3nc(-c4ccc(N5CCOCC5)cc4)c(Cl)cc3[nH]2)cc1` [Compound B-121]: the “EC150 (compound concentration showing 150% relative to the control)” value came out at 97 nM and the maximal effect (Emax) amounted to 278%.

On to `CC(C)(C(N)=O)c1ccc(Oc2nc3nc(-c4ccc(C5(COC(N)=O)CC5)cc4)c(Cl)cc3[nH]2)cc1` [Compound D-4], for which the “EC150 (compound concentration showing 150% relative to the control)” value came to 70 nM and the Emax was 207%.

`CCc1ccc(Oc2nc3nc(-c4ccc(N5CCOCC5)cc4)c(Cl)cc3[nH]2)cn1` [Compound C-89]: the “EC150 (compound concentration showing 150% relative to the control)” value was 470 nM and the Emax was 242%.

On to `CC(=O)NC(C)(C)c1ccc(Oc2nc3nc(-c4ccc(N(C)C)cc4)c(Cl)cc3[nH]2)cc1` [Compound D-21], for which the “EC150 (compound concentration showing 150% relative to the control)” value turned out to be 41 nM and the Emax was found to be 351%.

As to `CC(=O)NC(C)(C)c1ccc(Oc2nc3nc(-c4cccc(N(C)C)c4)c(Cl)cc3[nH]2)cc1` [Compound D-26], the “EC150 (compound concentration showing 150% relative to the control)” value was 82 nM and the Emax is 282%.

With `CC(=O)NC(C)(C)c1ccc(Oc2nc3nc(-c4ccc(C5=CCN(C)CC5)cc4)c(Cl)cc3[nH]2)cc1` [Compound D-108], the “EC150 (compound concentration showing 150% relative to the control)” value is 3.3 nM and the Emax was 301%.

As for `CC(=O)NCCCOc1ccc(-c2nc3nc(Oc4ccc(C(C)(C)NC(C)=O)cc4)[nH]c3cc2Cl)cc1` [Compound D-109], the “EC150 (compound concentration showing 150% relative to the control)” value is on record as 18 nM and the Emax is 270%.

For `Cc1ccc(Oc2nc3nc(-c4ccc(N5CCOCC5)cc4)c(C(F)(F)F)cc3[nH]2)cc1C(=O)O` [Compound C-96], the “EC150 (compound concentration showing 150% relative to the control)” value was found to be 99 nM and the Emax came to 326%.

Regarding `CC(C)(NS(C)(=O)=O)c1ccc(Oc2nc3nc(-c4ccc(N5CCOCC5)cc4)c(Cl)cc3[nH]2)cc1` [Compound D-52], the “EC150 (compound concentration showing 150% relative to the control)” value amounted to 2800 nM and the maximal effect (Emax) was found to be 169%.

Take `CC(C)(CO)c1ccc(Oc2nc3nc(-c4ccc(N5CCOCC5)cc4)c(Cl)cc3[nH]2)cn1` [Compound D-9]: the “EC150 (compound concentration showing 150% relative to the control)” value worked out at 380 nM and the Emax stood at 186%.

On to `CC(C)(C(=O)O)c1cccc(Oc2nc3nc(-c4ccc(N5CCOCC5)cc4)c(Cl)cc3[nH]2)c1` [Compound D-18], for which the “EC150 (compound concentration showing 150% relative to the control)” value was found to be 21 nM and the Emax was determined as 325%.

Consider `O=C(O)CCc1ccc(Oc2nc3nc(-c4ccc(N5CCOCC5)cc4)c(Cl)cc3[nH]2)cc1` [Compound B-136], for which the “EC150 (compound concentration showing 150% relative to the control)” value is listed as 27 nM and the Emax is 333%.

On to `COCC(=O)NC(C)(C)c1ccc(Oc2nc3nc(-c4ccc(N5CCOCC5)cc4)c(Cl)cc3[nH]2)cc1` [Compound D-50], for which the “EC150 (compound concentration showing 150% relative to the control)” value is given as 11 nM and the Emax stood at 225%.

With `CC(C)(C(N)=O)c1ccc(Oc2nc3nc(-c4ccc(N5CCOCC5)cc4)c(Cl)cc3[nH]2)cc1F` [Compound D-12], the “EC150 (compound concentration showing 150% relative to the control)” value turned out to be 69 nM and the Emax was found to be 226%.

`O=C(O)c1cncc(Oc2nc3nc(-c4ccc(N5CCOCC5)cc4)c(Cl)cc3[nH]2)c1` [Compound B-126]: the “EC150 (compound concentration showing 150% relative to the control)” value turned out to be 180 nM and the Emax came to 262%.

As to `Cc1ccc(Oc2nc3cc(-c4ccc(N5CCOCC5)cc4)c(C)nc3[nH]2)cc1C(=O)O` [Compound B-81], the “EC150 (compound concentration showing 150% relative to the control)” value worked out at 25 nM and the Emax worked out at 283%.

As for `CC(=O)NC(C)(C)c1ccc(Oc2nc3nc(-c4ccc(NCCO)cc4)c(Cl)cc3[nH]2)cc1` [Compound D-62], the “EC150 (compound concentration showing 150% relative to the control)” value was determined as 80 nM and the Emax amounted to 267%.

For the compound `CC(C)(C(=O)O)c1ccc(Oc2nc3nc(-c4ccc(N5CCCC5)cc4)c(Cl)cc3[nH]2)cc1` [Compound C-11], the “EC150 (compound concentration showing 150% relative to the control)” value turned out to be 7.4 nM and the Emax came out at 356%.

On to `COc1ccc(Oc2nc3nc(-c4ccc(N5CCOCC5)cc4)c(Cl)cc3[nH]2)cn1` [Compound C-100], for which the “EC150 (compound concentration showing 150% relative to the control)” value was found to be 590 nM and the Emax stood at 212%.

Regarding `CC(=O)NC(C)(C)c1ccc(Oc2nc3nc(-c4ccc(C5=CCOCC5)cc4)c(Cl)cc3[nH]2)cn1` [Compound D-70], the “EC150 (compound concentration showing 150% relative to the control)” value is 180 nM and the Emax is 214%.

Turning to `Cc1ccc(Oc2nc3nc(-c4ccc(N5CCOCC5)cc4)ncc3[nH]2)cc1C(=O)O` [Compound B-7], the “EC150 (compound concentration showing 150% relative to the control)” value is given as 5100 nM and the Emax turned out to be 246%.

On to `CC(C)(NC(=O)CO)c1ccc(Oc2nc3nc(-c4ccc(N5CCOCC5)cc4)c(Cl)cc3[nH]2)cc1` [Compound D-25], for which the “EC150 (compound concentration showing 150% relative to the control)” value was determined as 31 nM and the Emax amounted to 225%.
